Test results reported in US10709688B2, “Agent for treating synucleinopathy” (TOHOKU UNIVERSITY, priority 2016, dated 2020).

What was measured:
[1] = test system: MPTP Parkinson's disease model C57BL6 N mice; assay: Test Example 9: motor function in MPTP Parkinson's disease model mice; type: in vivo, mouse; conditions: p.o. once every day (Example 1: 0.1, 0.5 or 1.0 mg/kg; others 1.0 mg/kg), three weeks after MPTP, FIG. 9
Procedure: MPTP (25 mg/kg, i.p.) was administered once every day for 5 consecutive days to a 10 week old male C57BL6 N mice to prepare a Parkinson's disease model mice. […] Three weeks after administration of MPTP, at which time motor dysfunction was observed, the motor function was evaluated by a rotarod test and beam walking test.

[2] = test system: MPTP Parkinson's disease model mice; assay: Test Example 8: motor function in MPTP Parkinson's disease model animal; type: in vivo, mouse; conditions: 1.0 mg/kg p.o. daily 2 weeks, three weeks after MPTP, FIG. 8
Procedure: From 24 hours after the final administration of MPTP, the solvent or FABP3 ligand (compound of Example 3) (1.0 mg/kg, p.o., each group n=7) was administered once every day for 2 weeks. Three weeks after administration of MPTP, at which time motor dysfunction was observed, the motor function was evaluated by a rotarod test and beam walking test. […] It was confirmed in both tests that the ligand administered group was fully recovered from the motor dysfunction that developed after MPTP administration.

GST-FABP3 = GST-FABP3 (Mus musculus (Mouse), UniProt P11404); assay: Test Example 13: affinity of FABP ligand using ANS, GST-FABP3; type: binding; conditions: ANS fluorescence; average of three measurements±SE; read-out: Kd value of FABP against the ligands, GST-FABP3
Procedure: Pt: FABP protein concentration (=400 nM);

FABP3 = FABP3 (Homo sapiens (Human), UniProt P05413); assay: Evaluation of FABP3 ligand activity, fluorescent displacement assay using 1,8-ANS; type: binding; conditions: 1,8-ANS displacement; average of two measurements
Procedure: Adopted for evaluation in the evaluation of FABP3 ligand activity was a fluorescent displacement assay using 1,8-ANS (1-anilino-8-naphthalenesulfonic acid). Fluorescent materials such as 1,8-ANS are characterized by an increase in the fluorescent intensity under a hydrophobic environment. […] Ethanol was used as the dilution solvent of the compounds.
To each well was added as a detection reagent, a 1,8-ANS (ALDRICH) solution (10 μM, ethanol/sodium phosphate buffer solution=1:4 v/v, 25 μL), and ethanol solutions of compounds diluted to different concentrations were added in an amount of 10 μL each (the final ethanol concentration was 15%). The plate was shaken for 10 sec. in the plate reader and incubated for 10 min. at room temperature. […] Used for measurement was ARVO™ X One by PerkinElmer Japan.
(§1) Measurement was performed twice each, and the average was adopted as the result. The software, Origin, available from Light Stone was used for calculating IC50.

[3] = test system: MPTP Parkinson's disease model C57BL6 N mice; assay: Test Example 10: cognitive function in MPTP Parkinson's disease model mice; type: in vivo, mouse; conditions: p.o. once every day (Example 1: 0.1, 0.5 or 1.0 mg/kg; others 1.0 mg/kg), four weeks after MPTP, FIG. 10
Procedure: MPTP (25 mg/kg, i.p.) was administered once every day for 5 consecutive days to a 10 week old male C57BL6 N mice to prepare a Parkinson's disease model mice. […] Four weeks after administration of MPTP, at which time cognitive dysfunction was observed, the cognitive function was evaluated by a novel object recognition test and a passive avoidance test. The passive avoidance test was performed by putting a mouse in a light room and applying electric shock (0.3 mA, 2 second) on the mouse when it entered the dark room in the train run. Twenty four hours later, the mouse was put in the light room again, and the time until the mouse entered the dark room was measured.

[4] = test system: MPTP Parkinson's disease model C57BL6 N mice; assay: Test Example 7: cognitive function in MPTP Parkinson's disease model animal; type: in vivo, mouse; conditions: 1.0 mg/kg p.o. daily 2 weeks, four weeks after MPTP, FIG. 7
Procedure: 1-Methyl-4-phenyl-1,2,3,6-tetrahydropyridine (MPTP, 25 mg/kg, i.p., purchased from Sigma-Aldrich (St Louis, Mo.)), which is a dopamine neurotoxin, was administered once every day for 5 consecutive days to a 10 week old male C57BL6 N mice, to prepare a Parkinson's disease model animal. From 24 hours after the final administration of MPTP, the solvent or FABP3 ligand (compound of Example 3, 1.0 mg/kg, p.o., each group n=7) was administered once every day for 2 weeks. Four weeks after administration of MPTP, at which time cognitive dysfunction was observed, the cognitive function was evaluated by a novel object recognition test.

FABP4 = FABP4 (Homo sapiens (Human), UniProt P15090); assay: Evaluation of FABP4 ligand activity, fluorescent displacement assay using 1,8-ANS (Cayman assay kit); type: binding; conditions: 1,8-ANS displacement; average of two measurements
Procedure: An evaluation of FABP4 was performed using a fluorescent displacement assay using 1,8-ANS, similar to FABP3. Used in the evaluation of FABP4 was an assay kit (FABP4 Inhibitor/Ligand Screening Assay Kit) available from Cayman Chemical Company. Ethanol was used as a solvent for dissolving the compound, and an arachidonic acid which comes with the kit was used as a positive control. The measurement procedure was performed similarly to the aforementioned FABP3 assay.
as §1

[5] = test system: dopamine neurons (TH positive cells) of substantia nigra, MPTP model mice; assay: Test Example 11: dopamine neuroprotection in MPTP Parkinson's disease model mice; type: in vivo, mouse; conditions: p.o. once every day (Example 1: 0.1, 0.3 or 1.0 mg/kg; others 1.0 mg/kg), four weeks after MPTP, FIG. 11
Procedure: (§2) MPTP (25 mg/kg, i.p.) was administered once every day for 5 consecutive days to a 10 week old male C57BL6 N mice to prepare a Parkinson's disease model mice. […] Four weeks after MPTP administration, at which time a loss in the dopamine neuron and formation of α-synuclein multimers are observed, the mouse was fixed under perfusion to prepare a brain slice 50 μm thick that includes a substantia nigra region.

GST-FABP4 = GST-FABP4 (Mus musculus (Mouse), UniProt P04117); assay: Test Example 13: affinity of FABP ligand using ANS, GST-FABP4; conditions: read-out: Kd value of FABP against the ligands, GST-FABP4; ANS fluorescence; average of three measurements±SE
Procedure: After GST-FABP3 and GST-FABP4 were respectively expressed in the Escherichia coli [BL21 (DE3) strain], affinity purification was performed using a glutathione column.
Purification of the GST binding protein was performed using a GST purification kit (Takara Bio USA). After the Escherichia coli was recovered by centrifuging, the accessory extraction buffer and aluminum oxide powder were added and the mixture was ground in the mortar. The centrifuged supernatant was added to the accessory glutathione column and left stationary on ice for 30 min. Then, the supernatant in the column was thrown away, and the remaining matter was washed with the extraction buffer, and subsequently subjected to elution using an elution buffer including glutathione. The protein concentration of the elution product was calculated from the absorbance at 280 nm, and used as an ANS assay.
The fluorescence intensity at the respective ligand concentrations was converted to a relative value (%) against the ANS fluorescence intensity under the absence of ligand, then the dissociation constant Kd(nM) was calculated by a nonrecurring analysis using the following equation.
F: Relative fluorescence intensity at a certain condition (%);
Ka: Reciprocal of dissociation constant Kd (nM^−1);
Fmax*: Relative fluorescence intensity when FABP is fully occupied by ligands.

[6] = test system: TH and α-synuclein double positive cells of substantia nigra, MPTP model mice; assay: Test Example 12: suppression of α-synuclein aggregation in MPTP Parkinson's disease model mice; type: in vivo, mouse; conditions: p.o. once every day (Example 1: 0.1, 0.3 or 1.0 mg/kg; others 1.0 mg/kg), four weeks after MPTP, FIG. 12
Procedure: as §2, with “observed, a” for “observed, the”, “region. The brain slice was reacted with an anti-TH antibody (mouse monoclonal antibody 22941 produced by Immunostar, 1:1000) and an anti-α-synuclein antibody (rabbit polyclonal antibody SC-7011-R produced by Santa Cruz, 1:200) and detected by a fluorescence-labeled, secondary antibody (Alexa 488 anti-rabbit IgG (produced by Jackson ImmunoResearch, 1:500)) to evaluate the number of positive cells.” for “region.”

Sequence of GST-FABP3 (P11404 whole entry): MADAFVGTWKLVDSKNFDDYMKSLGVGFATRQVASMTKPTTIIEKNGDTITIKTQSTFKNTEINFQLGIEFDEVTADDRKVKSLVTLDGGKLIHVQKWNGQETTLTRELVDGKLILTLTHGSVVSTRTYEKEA
Sequence of GST-FABP4 (P04117 whole entry): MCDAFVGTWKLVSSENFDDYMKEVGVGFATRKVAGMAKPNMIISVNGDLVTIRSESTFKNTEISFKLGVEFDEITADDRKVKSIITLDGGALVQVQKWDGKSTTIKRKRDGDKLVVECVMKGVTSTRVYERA
Sequence of FABP4 (P15090 whole entry): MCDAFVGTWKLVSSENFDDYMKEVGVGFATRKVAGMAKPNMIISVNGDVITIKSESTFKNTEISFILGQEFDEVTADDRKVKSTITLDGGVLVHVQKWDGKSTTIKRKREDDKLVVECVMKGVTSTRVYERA
Sequence of FABP3 (P05413 whole entry, species assumed): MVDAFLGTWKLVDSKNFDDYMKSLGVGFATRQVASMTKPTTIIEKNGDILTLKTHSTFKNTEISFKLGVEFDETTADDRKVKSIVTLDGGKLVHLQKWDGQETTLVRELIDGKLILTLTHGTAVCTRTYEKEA

`O=C(O)CCCOc1ccccc1-c1cc(-c2ccccc2)n(-c2ccc(Cl)c(Cl)c2)n1` [Example 3, 4-(2-(1-(3,4-Dichlorophenyl)-5-phenyl-1H-pyrazol-3-yl)phenoxy)butanoic acid] was tested, and the “beam walking test, number of footslips” value [1] was “improved significantly”, the “rotarod test, Latency” value [1] was “improved significantly” and the “beam walking test, number of footslips” value [2] was “entirely recovered”. The “rotarod test, Latency” value [2] was “recovered fully”, the Kd (GST-FABP3) was 2220 ± 104 nM and the IC50 (FABP3) was 280 nM. The “cognitive function by novel object recognition test and passive avoidance test” value [3] was “significant effects”, the “novel object recognition test, cognitive dysfunction” value [4] was “such dysfunction was not observed” and the IC50 (FABP4) was 1660 nM. For the same compound, the “number of TH positive cells (dopamine neurons)” value [5] was “improved significantly”, the Kd (GST-FABP4) was 6.67 ± 1.4 µM and the “number of TH and α-synuclein double positive cells” value [6] was “tendency towards improvement”.
